The source made the active and inactive calls. The rule behind the calls is not given here.
What was measured:
[1] = Drug uptake in PSMA positive human 22Rv1 cells at 10 uM measured after 1 to 6 hrs in presence of PSMA ligand DUPA by LC-MS/MS analysis; type: ADME, cell-based; conditions: cwr22r, time 1-6 hrs
CWR22R [2] = experiment: Induction of DNA damage in human 22Rv1 cells assessed as increase in number of gamma-H2AX foci incubated for 12 hrs by DAPI staining based immunofluorescence analysis; type: functional, cell-based; conditions: dose 50-200 µM
[3] = Half-life in Sprague-Dawley rat at 100 mg/kg, po measured after 24 hrs by UPLC-MS/MS analysis; type: ADME, organism-based; conditions: in vivo
[4] = Subacute toxicity in male ICR mouse assessed as decrease in body weight at 175 mg/kg, po administered via gavage for 30 days; type: organism-based; conditions: in vivo, 720 h, time 30 day
[5] = Volume of distribution in Sprague-Dawley rat at 5 mg/kg, iv measured after 24 hrs by UPLC-MS/MS analysis; type: ADME, organism-based; conditions: in vivo
CWR22R [6] = experiment: Antitumor activity against human 22Rv1 cells xenografted in male BALB/c nude mouse at 175 mg/kg administered via gavage; type: functional, organism-based
[7] = Subacute toxicity in male ICR mouse assessed as decrease in lymphocytes at 175 mg/kg, po administered via gavage for 30 days by blood routine test; type: organism-based; conditions: in vivo, 720 h, time 30 day
[8] = Cmax in Sprague-Dawley rat at 100 mg/kg, po measured after 24 hrs by UPLC-MS/MS analysis; type: ADME, organism-based; conditions: in vivo
PC-3 = experiment: Antiproliferative activity against PSMA negative human PC-3 cells assessed as effect on cell viability incubated for 72 hrs by MTT assay; type: functional
[9] = AUC (0 to infinity) in Sprague-Dawley rat at 100 mg/kg, po measured after 24 hrs by UPLC-MS/MS analysis; type: ADME, organism-based; conditions: in vivo
[10] = Subacute toxicity in male ICR mouse assessed as decrease in WBC at 175 mg/kg, po administered via gavage for 30 days by blood routine test; type: organism-based; conditions: in vivo, 720 h, time 30 day
[11] = Subacute toxicity in male ICR mouse assessed as decrease in hematocrit at 175 mg/kg, po administered via gavage for 30 days by blood routine test; type: organism-based; conditions: in vivo, 720 h, time 30 day
CWR22R [12] = experiment: Antitumor activity against human 22Rv1 cells xenografted in male BALB/c nude mouse assessed as tumor growth inhibition at 175 mg/kg administered via gavage relative to control; type: functional; conditions: 22Rv1, po, read-out: TGI
[13] = Subacute toxicity in male ICR mouse assessed as decrease in red blood cells at 175 mg/kg, po administered via gavage for 30 days by blood routine test; type: organism-based; conditions: in vivo, 720 h, time 30 day
LNCaP = experiment: Antiproliferative activity against human LNCaP cells with high PSMA expression assessed as effect on cell viability incubated for 72 hrs by MTT assay; type: functional, cell-based
[14] = Half-life in Sprague-Dawley rat at 5 mg/kg, iv measured after 24 hrs by UPLC-MS/MS analysis; type: ADME, organism-based; conditions: in vivo
[15] = C0 in Sprague-Dawley rat at 5 mg/kg, iv measured after 24 hrs by UPLC-MS/MS analysis; type: ADME, organism-based; conditions: in vivo
[16] = Subacute toxicity in male ICR mouse assessed as decrease in neutrophils at 175 mg/kg, po administered via gavage for 30 days by blood routine test; type: organism-based; conditions: in vivo, 720 h, time 30 day
[17] = Tmax in Sprague-Dawley rat at 100 mg/kg, po measured after 24 hrs by UPLC-MS/MS analysis; type: ADME, organism-based; conditions: in vivo
[18] = Drug uptake in PSMA positive human 22Rv1 cells at 10 uM measured after 1 to 6 hrs by LC-MS/MS analysis; type: ADME, cell-based; conditions: cwr22r, time 1-6 hrs
CWR22R [19] = experiment: Induction of apoptosis in human 22Rv1 cells assessed as increase in cleaved caspase-3 expression at 100 uM incubated for 72 hrs by Western blot analysis; type: functional, cell-based
[20] = Toxicity in male BALB/c nude mouse xenografted with human 22Rv1 cells assessed as decrease in body weight at 175 mg/kg administered via gavage; type: organism-based; conditions: in vivo, po
[21] = Subacute toxicity in male ICR mouse assessed as decrease in hemoglobin at 175 mg/kg, po administered via gavage for 30 days by blood routine test; type: organism-based; conditions: in vivo, 720 h, time 30 day
[22] = AUC (0 to infinity) in Sprague-Dawley rat at 5 mg/kg, iv measured after 24 hrs by UPLC-MS/MS analysis; type: ADME, organism-based; conditions: in vivo
[23] = Oral bioavailability in Sprague-Dawley rat at 100 mg/kg measured after 24 hrs by UPLC-MS/MS analysis; type: ADME, organism-based; conditions: in vivo
CWR22R [24] = experiment: Antiproliferative activity against human 22Rv1 cells assessed as reduction in cell viability at 125 uM in presence of DUPA; type: functional, cell-based
[25] = Antiproliferative activity against PSMA negative human RWPE-1 cells assessed as effect on cell viability incubated for 72 hrs by MTT assay; type: toxicity, cell-based; conditions: RWPE-1 cells (PSMA negative)
[26] = AUC (0 to t) in Sprague-Dawley rat at 100 mg/kg, po measured after 24 hrs by UPLC-MS/MS analysis; type: ADME, organism-based; conditions: in vivo
[27] = AUC (0 to t) in Sprague-Dawley rat at 5 mg/kg, iv measured after 24 hrs by UPLC-MS/MS analysis; type: ADME, organism-based; conditions: in vivo
CWR22R [28] = experiment: Antiproliferative activity against human 22Rv1 cells with high PSMA expression assessed as effect on cell viability incubated for 72 hrs by MTT assay; type: functional, cell-based; conditions: 22Rv1, 72 h
[29] = Clearance in Sprague-Dawley rat at 5 mg/kg, iv measured after 24 hrs by UPLC-MS/MS analysis; type: ADME, organism-based; conditions: in vivo
[30] = molecular target: Poly [ADP-ribose] polymerase 1 (Homo sapiens, UniProt P09874); experiment: Inhibition of PARP1 (unknown origin) by biotinylated NAD+-based luminescence assay
Sequence of Poly [ADP-ribose] polymerase 1 (P09874 whole entry): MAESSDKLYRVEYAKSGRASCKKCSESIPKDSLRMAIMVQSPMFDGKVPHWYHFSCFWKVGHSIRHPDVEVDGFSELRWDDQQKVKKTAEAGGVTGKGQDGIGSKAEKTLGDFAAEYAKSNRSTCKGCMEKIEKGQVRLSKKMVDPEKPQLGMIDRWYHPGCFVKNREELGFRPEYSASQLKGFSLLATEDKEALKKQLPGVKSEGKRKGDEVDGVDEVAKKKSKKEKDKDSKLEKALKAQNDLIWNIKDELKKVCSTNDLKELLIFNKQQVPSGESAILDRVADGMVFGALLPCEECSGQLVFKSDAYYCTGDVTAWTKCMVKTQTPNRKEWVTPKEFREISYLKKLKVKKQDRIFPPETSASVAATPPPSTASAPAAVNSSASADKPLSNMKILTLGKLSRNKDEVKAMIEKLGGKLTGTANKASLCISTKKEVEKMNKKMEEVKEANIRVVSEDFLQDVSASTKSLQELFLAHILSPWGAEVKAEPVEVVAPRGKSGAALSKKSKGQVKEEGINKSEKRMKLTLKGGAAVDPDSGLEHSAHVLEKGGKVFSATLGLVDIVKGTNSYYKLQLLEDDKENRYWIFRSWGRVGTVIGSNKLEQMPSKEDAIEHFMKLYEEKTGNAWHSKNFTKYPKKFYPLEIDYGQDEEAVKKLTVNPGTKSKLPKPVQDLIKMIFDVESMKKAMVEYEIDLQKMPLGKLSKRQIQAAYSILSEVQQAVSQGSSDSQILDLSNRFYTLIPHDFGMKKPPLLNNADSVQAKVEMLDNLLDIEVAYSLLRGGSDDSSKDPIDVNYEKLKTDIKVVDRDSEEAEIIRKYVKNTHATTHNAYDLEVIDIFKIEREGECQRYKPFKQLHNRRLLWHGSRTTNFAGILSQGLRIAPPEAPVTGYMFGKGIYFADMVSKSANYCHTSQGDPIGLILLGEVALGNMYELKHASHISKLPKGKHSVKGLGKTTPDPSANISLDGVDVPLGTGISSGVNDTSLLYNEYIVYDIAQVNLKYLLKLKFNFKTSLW

O=C(O)CC[C@H](NC(=O)N[C@@H](CCCCNC(=O)CCC(=O)N1CCN(C(=O)c2cc(Cc3n[nH]c(=O)c4ccccc34)ccc2F)CC1)C(=O)O)C(=O)O
Drug uptake [1]: Not_active | Activity (CWR22R [2]): Dose-dependent-effect | half-life [3]: 54.8 min | Activity [4]: Non-toxic | Vd [5]: 0.391 L/kg | Activity (CWR22R [6]): Active | Activity [7]: Non-toxic | Cmax [8]: 5260 ng/mL | CC50 (PC-3): > 1000 µM | AUC(0-inf) [9]: 16500 ng·h/mL | Activity [10]: Non-toxic | Activity [11]: Non-toxic | inhibition in vivo at 175 mg/kg (CWR22R [12]): 69% | Activity [13]: Non-toxic | IC50 (LNCaP): 93.9 µM | half-life [14]: 22.7 min | C0 at 24 h [15]: 12800 ng/mL | Activity [16]: Non-toxic | Tmax [17]: 60 min | Drug uptake [18]: Active | Activity (CWR22R [19]): Active; Similar To Olaparib-Treated Group | Activity [20]: Non-toxic | Activity [21]: Non-toxic | AUC(0-inf) [22]: 7460 ng·h/mL | bioavailability [23]: 11% | Activity (CWR22R [24]): Not active; Drug Mode Of Action Appears To Be Via Binding To Psma Receptor | CC50 at 72 h [25]: > 1000 µM | AUC(0-t) at 24 h [26]: 16300 ng·h/mL | AUC(0-t) at 24 h [27]: 7300 ng·h/mL | IC50 (CWR22R [28]): 133 µM | clearance [29]: 12 mL/min/kg | IC50 [30]: 0.0019 µM

— ChEMBL document CHEMBL6092215, “A Prostate-Specific Membrane Antigen-Targeting Small Molecule-Drug Conjugate Strategy to Overcome the Hematological Toxicity of Olaparib” (J Med Chem, 2024)
